Measured values: the kinase profiling compilation of Christmann-Franck et al. (2016)
Several values for one entry are separate records, joined by “and”; a condition that tells them apart may be missing. Equal entries are not always repeated.

Legend:
Assay in all cases: radiometric filter-binding kinase assay, Kinase HotSpot
Settings in all cases: compound 0.5 µM; ATP 10 µM
BLK (human) = BLK (human) (UniProt P51451)
ROS1 (human) = ROS1 (human) (UniProt P08922)
MARK2 (human) = MARK2 (human) (UniProt Q7KZI7)
MARK2 (human), sequence (Q7KZI7 whole entry, looked up): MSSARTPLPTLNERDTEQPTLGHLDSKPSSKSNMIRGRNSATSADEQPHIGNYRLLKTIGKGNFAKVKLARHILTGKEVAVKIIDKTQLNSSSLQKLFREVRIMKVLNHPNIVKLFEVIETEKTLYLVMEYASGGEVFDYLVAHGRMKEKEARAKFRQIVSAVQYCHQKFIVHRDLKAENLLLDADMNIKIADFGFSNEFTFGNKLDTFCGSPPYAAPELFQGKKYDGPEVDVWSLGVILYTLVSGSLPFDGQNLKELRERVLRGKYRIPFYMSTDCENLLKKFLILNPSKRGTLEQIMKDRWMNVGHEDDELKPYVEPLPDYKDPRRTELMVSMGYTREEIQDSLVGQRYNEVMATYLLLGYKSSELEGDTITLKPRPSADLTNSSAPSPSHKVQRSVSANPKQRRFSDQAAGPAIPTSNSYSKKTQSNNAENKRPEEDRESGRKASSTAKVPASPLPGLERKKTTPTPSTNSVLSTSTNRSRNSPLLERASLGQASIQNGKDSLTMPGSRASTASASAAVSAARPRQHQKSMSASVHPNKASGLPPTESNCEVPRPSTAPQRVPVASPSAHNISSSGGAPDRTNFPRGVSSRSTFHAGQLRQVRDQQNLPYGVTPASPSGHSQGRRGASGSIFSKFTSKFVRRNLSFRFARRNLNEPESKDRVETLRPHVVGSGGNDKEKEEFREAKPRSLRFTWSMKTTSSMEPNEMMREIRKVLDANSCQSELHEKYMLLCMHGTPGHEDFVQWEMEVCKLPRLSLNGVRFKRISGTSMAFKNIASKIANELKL

LYN (human) = LYN (human) (UniProt P07948)
LYN (human), sequence (P07948 whole entry, looked up): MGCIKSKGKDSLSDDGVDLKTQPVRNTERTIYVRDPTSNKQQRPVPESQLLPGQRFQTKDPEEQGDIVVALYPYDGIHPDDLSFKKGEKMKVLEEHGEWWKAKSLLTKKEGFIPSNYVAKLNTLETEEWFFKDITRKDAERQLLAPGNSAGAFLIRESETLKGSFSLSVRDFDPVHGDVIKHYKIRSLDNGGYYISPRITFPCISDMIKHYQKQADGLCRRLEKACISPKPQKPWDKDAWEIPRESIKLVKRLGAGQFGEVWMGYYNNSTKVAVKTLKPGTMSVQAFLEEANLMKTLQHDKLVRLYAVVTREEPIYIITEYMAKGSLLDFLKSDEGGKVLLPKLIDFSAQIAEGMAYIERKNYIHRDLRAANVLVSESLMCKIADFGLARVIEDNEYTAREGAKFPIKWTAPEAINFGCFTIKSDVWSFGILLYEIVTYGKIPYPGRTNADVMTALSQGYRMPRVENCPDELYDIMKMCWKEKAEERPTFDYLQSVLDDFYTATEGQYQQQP

YES1 (human) = YES1 (human) (UniProt P07947)
LIMK1 (human) = LIMK1 (human) (UniProt P53667)
CDK4 CCND1 (human) = CDK4 CCND1 (human) (UniProt P24385+P11802)
FRK (human) = FRK (human) (UniProt P42685)
SGK2 (human) = SGK2 (human) (UniProt Q9HBY8)
PRKG1 (human) = PRKG1 (human) (UniProt Q13976)
PRKG1 (human), sequence (Q13976 whole entry, looked up): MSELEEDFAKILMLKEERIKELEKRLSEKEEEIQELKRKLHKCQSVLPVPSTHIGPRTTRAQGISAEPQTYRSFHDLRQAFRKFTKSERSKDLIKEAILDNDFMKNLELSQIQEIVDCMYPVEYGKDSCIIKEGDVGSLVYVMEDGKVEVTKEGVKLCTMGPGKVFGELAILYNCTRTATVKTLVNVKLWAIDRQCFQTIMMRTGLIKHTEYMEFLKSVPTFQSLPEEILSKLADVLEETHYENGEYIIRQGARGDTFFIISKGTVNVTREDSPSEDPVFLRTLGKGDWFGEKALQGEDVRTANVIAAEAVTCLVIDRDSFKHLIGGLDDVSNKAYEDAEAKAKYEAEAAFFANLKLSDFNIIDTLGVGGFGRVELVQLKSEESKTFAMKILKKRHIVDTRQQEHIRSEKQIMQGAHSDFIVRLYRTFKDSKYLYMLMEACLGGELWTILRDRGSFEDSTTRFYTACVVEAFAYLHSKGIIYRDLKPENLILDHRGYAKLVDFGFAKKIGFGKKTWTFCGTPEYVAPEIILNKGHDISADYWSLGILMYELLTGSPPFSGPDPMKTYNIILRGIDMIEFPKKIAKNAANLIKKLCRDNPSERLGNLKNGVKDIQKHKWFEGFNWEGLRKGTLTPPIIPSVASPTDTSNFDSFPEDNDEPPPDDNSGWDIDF

EPHB4 (human) = EPHB4 (human) (UniProt P54760)
AXL (human) = AXL (human) (UniProt P30530)
STK39 (human) = STK39 (human) (UniProt Q9UEW8)
MAP3K3 (human) = MAP3K3 (human) (UniProt Q99759)
MAP3K3 (human), sequence (Q99759 whole entry, looked up): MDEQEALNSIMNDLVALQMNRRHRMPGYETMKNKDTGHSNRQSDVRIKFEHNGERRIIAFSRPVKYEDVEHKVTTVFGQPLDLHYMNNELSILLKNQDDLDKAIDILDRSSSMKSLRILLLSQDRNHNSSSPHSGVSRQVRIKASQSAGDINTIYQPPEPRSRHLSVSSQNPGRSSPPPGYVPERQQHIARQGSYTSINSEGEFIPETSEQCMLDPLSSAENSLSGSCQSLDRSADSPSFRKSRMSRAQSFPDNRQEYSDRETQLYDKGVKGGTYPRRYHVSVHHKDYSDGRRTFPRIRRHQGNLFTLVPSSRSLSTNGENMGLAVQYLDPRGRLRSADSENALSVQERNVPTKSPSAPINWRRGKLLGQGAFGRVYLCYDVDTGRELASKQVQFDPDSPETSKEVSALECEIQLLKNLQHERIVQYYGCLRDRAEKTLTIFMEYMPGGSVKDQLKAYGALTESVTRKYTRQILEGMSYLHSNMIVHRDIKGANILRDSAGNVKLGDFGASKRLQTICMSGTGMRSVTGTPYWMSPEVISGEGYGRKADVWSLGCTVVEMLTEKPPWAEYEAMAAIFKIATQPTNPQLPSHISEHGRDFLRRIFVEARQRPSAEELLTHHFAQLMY

DMPK (human) = DMPK (human) (UniProt Q09013)
DMPK (human), sequence (Q09013 whole entry, looked up): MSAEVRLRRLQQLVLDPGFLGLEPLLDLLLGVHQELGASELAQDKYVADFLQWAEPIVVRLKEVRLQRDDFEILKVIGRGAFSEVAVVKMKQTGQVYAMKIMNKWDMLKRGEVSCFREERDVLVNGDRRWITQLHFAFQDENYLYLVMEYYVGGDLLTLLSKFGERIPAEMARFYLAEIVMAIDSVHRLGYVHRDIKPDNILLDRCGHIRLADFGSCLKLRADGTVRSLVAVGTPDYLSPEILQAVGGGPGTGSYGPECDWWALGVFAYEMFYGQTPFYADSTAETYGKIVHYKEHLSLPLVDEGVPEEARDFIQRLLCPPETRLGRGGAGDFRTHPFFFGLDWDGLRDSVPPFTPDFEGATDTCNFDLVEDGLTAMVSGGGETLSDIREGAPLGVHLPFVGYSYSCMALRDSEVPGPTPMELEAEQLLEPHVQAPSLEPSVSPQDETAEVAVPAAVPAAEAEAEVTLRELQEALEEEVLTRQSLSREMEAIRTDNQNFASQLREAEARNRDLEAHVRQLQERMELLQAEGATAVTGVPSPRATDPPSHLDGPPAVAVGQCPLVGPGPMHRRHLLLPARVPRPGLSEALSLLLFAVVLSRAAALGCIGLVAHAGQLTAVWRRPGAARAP

CDK4 CCND3 (human) = CDK4 CCND3 (human) (UniProt P30281+P11802)
ABL1 (human) = ABL1 (human) (UniProt P00519)
ULK2 (human) = ULK2 (human) (UniProt Q8IYT8)
RPS6KB2 (human) = RPS6KB2 (human) (UniProt Q9UBS0)
RPS6KB2 (human), sequence (Q9UBS0 whole entry, looked up): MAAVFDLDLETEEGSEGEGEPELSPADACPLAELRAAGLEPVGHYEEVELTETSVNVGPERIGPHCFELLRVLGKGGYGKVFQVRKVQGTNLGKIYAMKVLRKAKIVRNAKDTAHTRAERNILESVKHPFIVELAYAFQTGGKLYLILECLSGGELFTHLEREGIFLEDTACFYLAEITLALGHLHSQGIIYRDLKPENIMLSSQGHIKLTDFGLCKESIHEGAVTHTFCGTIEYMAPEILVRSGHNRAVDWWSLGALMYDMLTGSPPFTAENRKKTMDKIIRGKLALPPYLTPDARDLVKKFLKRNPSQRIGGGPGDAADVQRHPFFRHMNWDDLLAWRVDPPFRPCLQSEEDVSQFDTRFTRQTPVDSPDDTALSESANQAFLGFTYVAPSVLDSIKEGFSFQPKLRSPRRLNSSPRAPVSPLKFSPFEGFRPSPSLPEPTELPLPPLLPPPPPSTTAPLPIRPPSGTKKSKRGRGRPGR

LCK (human) = LCK (human) (UniProt P06239)
CAMK1 (human) = CAMK1 (human) (UniProt Q14012)
CLK3 (human) = CLK3 (human) (UniProt P49761)
CAMK1D (human) = CAMK1D (human) (UniProt Q8IU85)
CDK5 CDK5R1 p35 (human) = CDK5 CDK5R1 p35 (human) (UniProt Q00535+Q15078)
BRSK1 (human) = BRSK1 (human) (UniProt Q8TDC3)
DYRK3 (human) = DYRK3 (human) (UniProt O43781)
RIPK2 (human) = RIPK2 (human) (UniProt O43353)
RPS6KB1 (human) = RPS6KB1 (human) (UniProt P23443)
FGFR3 (human) = FGFR3 (human) (UniProt P22607)
PRKD3 (human) = PRKD3 (human) (UniProt O94806)
CSNK1A1 (human) = CSNK1A1 (human) (UniProt P48729)
CSNK1A1 (human), sequence (P48729 whole entry, looked up): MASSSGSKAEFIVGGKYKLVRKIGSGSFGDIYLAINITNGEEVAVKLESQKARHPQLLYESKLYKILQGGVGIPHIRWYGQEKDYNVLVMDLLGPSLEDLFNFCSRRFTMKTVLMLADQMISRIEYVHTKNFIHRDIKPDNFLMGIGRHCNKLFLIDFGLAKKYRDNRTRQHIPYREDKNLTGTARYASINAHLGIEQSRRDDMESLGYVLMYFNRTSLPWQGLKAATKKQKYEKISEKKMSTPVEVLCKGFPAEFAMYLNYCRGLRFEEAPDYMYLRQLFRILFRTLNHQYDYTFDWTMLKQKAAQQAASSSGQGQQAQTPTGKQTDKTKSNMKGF

CDC42BPB (human) = CDC42BPB (human) (UniProt Q9Y5S2)
JAK3 JH1 JH2 (human) = JAK3 JH1 JH2 (human) (UniProt P52333)
PIM2 (human) = PIM2 (human) (UniProt Q9P1W9)
MUSK (human) = MUSK (human) (UniProt O15146)
WNK2 (human) = WNK2 (human) (UniProt Q9Y3S1)
GRK5 (human) = GRK5 (human) (UniProt P34947)
ROCK2 (human) = ROCK2 (human) (UniProt O75116)
TGFBR2 (human) = TGFBR2 (human) (UniProt P37173)
CDK9 CCNT1 (human) = CDK9 CCNT1 (human) (UniProt P50750+O60563)
TAOK1 (human) = TAOK1 (human) (UniProt Q7L7X3)
TAOK1 (human), sequence (Q7L7X3 whole entry, looked up): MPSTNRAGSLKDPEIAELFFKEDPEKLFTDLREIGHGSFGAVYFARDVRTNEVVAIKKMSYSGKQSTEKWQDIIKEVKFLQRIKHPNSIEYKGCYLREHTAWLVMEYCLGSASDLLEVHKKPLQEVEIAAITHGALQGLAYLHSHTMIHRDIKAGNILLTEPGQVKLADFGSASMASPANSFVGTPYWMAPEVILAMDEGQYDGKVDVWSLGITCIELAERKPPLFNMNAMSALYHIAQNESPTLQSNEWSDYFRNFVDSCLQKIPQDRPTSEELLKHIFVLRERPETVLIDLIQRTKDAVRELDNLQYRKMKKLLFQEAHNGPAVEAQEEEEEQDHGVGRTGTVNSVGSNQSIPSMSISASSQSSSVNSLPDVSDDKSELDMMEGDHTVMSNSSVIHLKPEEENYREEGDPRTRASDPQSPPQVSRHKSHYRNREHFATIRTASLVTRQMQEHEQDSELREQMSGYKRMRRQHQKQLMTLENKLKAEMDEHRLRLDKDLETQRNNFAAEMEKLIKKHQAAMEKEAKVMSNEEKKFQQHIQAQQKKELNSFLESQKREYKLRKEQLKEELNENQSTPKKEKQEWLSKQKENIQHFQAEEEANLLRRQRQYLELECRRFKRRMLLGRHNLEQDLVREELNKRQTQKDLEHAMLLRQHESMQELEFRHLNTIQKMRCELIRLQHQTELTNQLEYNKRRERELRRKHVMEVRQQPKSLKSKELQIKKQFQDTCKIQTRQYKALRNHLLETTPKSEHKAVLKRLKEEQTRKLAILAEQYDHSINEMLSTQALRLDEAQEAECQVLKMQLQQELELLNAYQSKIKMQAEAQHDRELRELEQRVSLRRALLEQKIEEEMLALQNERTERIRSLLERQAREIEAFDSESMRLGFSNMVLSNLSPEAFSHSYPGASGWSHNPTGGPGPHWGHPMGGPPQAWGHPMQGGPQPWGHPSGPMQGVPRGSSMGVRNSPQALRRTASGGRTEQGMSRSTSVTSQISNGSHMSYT

CLK1 (human) = CLK1 (human) (UniProt P49759)

COc1ccc(C(=O)Nc2sc3c(c2C(N)=O)CCCC3)cc1OC
residual activity (BLK (human)): 102% | residual activity (ROS1 (human)): 78.8% | residual activity (MARK2 (human)): 98.7% | residual activity (LYN (human)): 93.5% and 95.9% | residual activity (YES1 (human)): 88.3% | residual activity (LIMK1 (human)): 93.2% | residual activity (CDK4 CCND1 (human)): 95.9% | residual activity (FRK (human)): 88.8% | residual activity (SGK2 (human)): 100% | residual activity (PRKG1 (human)): 87.5% and 97% | residual activity (EPHB4 (human)): 93.9% | residual activity (AXL (human)): 84.4% | residual activity (STK39 (human)): 101% | residual activity (MAP3K3 (human)): 100% | residual activity (DMPK (human)): 108% | residual activity (CDK4 CCND3 (human)): 98.8% | residual activity (ABL1 (human)): 101% | residual activity (ULK2 (human)): 105% | residual activity (RPS6KB2 (human)): 101% | residual activity (LCK (human)): 93.8% | residual activity (CAMK1 (human)): 90.9% | residual activity (CLK3 (human)): 63% | residual activity (CAMK1D (human)): 93.8% | residual activity (CDK5 CDK5R1 p35 (human)): 90.8% | residual activity (BRSK1 (human)): 105% | residual activity (DYRK3 (human)): 98% | residual activity (RIPK2 (human)): 76.5% | residual activity (RPS6KB1 (human)): 84.3% | residual activity (FGFR3 (human)): 98.3% | residual activity (PRKD3 (human)): 103% | residual activity (CSNK1A1 (human)): 108% | residual activity (CDC42BPB (human)): 94.5% | residual activity (JAK3 JH1 JH2 (human)): 108% | residual activity (PIM2 (human)): 98.5% | residual activity (MUSK (human)): 79.4% | residual activity (WNK2 (human)): 100% | residual activity (GRK5 (human)): 104% | residual activity (ROCK2 (human)): 92.3% | residual activity (TGFBR2 (human)): 134% | residual activity (CDK9 CCNT1 (human)): 102% | residual activity (TAOK1 (human)): 95.5% | residual activity (CLK1 (human)): 96.9%

COc1ccc2c(c1)c(C1=C(c3c[nH]c4ccccc34)C(=O)NC1=O)cn2CCCN(C)C
residual activity (BLK (human)): 78.8% | residual activity (ROS1 (human)): 52.4% | residual activity (MARK2 (human)): 91.8% | residual activity (LYN (human)): 112% and 94.2% | residual activity (YES1 (human)): 90.4% | residual activity (LIMK1 (human)): 81.8% | residual activity (CDK4 CCND1 (human)): 78.6% | residual activity (FRK (human)): 91.3% | residual activity (SGK2 (human)): 92.6% | residual activity (PRKG1 (human)): 79.4% and 99.5% | residual activity (EPHB4 (human)): 94.2% | residual activity (AXL (human)): 98.7% | residual activity (STK39 (human)): 111% | residual activity (MAP3K3 (human)): 82.8% | residual activity (DMPK (human)): 97.7% | residual activity (CDK4 CCND3 (human)): 95.5% | residual activity (ABL1 (human)): 107% | residual activity (ULK2 (human)): 96.1% | residual activity (RPS6KB2 (human)): 65.4% | residual activity (LCK (human)): 93.6% | residual activity (CAMK1 (human)): 90.2% | residual activity (CLK3 (human)): 43.6% | residual activity (CAMK1D (human)): 73.3% | residual activity (CDK5 CDK5R1 p35 (human)): 81.4% | residual activity (BRSK1 (human)): 81.9% | residual activity (DYRK3 (human)): 81% | residual activity (RIPK2 (human)): 70.2% | residual activity (RPS6KB1 (human)): 19.7% | residual activity (FGFR3 (human)): 87.5% | residual activity (PRKD3 (human)): 91.9% | residual activity (CSNK1A1 (human)): 62.3% | residual activity (CDC42BPB (human)): 89.4% | residual activity (JAK3 JH1 JH2 (human)): 138% | residual activity (PIM2 (human)): 90.5% | residual activity (MUSK (human)): 53.5% | residual activity (WNK2 (human)): 96.5% | residual activity (GRK5 (human)): 114% | residual activity (ROCK2 (human)): 89.2% | residual activity (TGFBR2 (human)): 120% | residual activity (CDK9 CCNT1 (human)): 69.7% | residual activity (TAOK1 (human)): 99.5% | residual activity (CLK1 (human)): 48.2%
